Where two headings read alike, the source gives them in different places. Where a SMILES comes first, the peptide text is derived from it. Bridges are numbered along the chain shown (N, C = ends). [ ]: non-standard residue; d: D form. dPen = CC(C)(S)[C@@H](N)C(=O)O
Tests used:
[1] = biological target: T1, mu receptors (rat brain membrane preparations) (Rattus norvegicus, UniProt P33535); test: Rat brain binding assay, displacement of [3H]naloxone
T1 construct: Whole brains with cerebellum removed were homogenized in 100 volumes of Tris-HCl buffer; from tissue; host or cells: rat whole brain (cerebellum removed) membrane homogenate

[2] = biological target: T2, delta type opiate receptors (mouse vas deferens preparation) (Mus musculus, UniProt P32300); test: Mouse vas deferens (MVD) assay, inhibition of electrically stimulated contractions; assay type: cell-based; details: for IC50 (GPI)/IC50 (MVD): delta receptor selectivity, GPI versus MVD
T2 construct: The mouse vas deferens was prepared following the method of Hughes et al; from tissue; host or cells: mouse vas deferens
Description: These assays tested the degree of electrically stimulated contractions in the MVD and GPI tissues.
The mouse vas deferens was prepared following the method of Hughes et al. One pair of vasa deferentia was used in each experiment.

[3] = biological target: T3, delta receptors (rat brain membrane preparations) (Rattus norvegicus, UniProt P33533); test: Rat brain binding assay, displacement of [3H][D-Ala2, D-Leu5]enkephalin
T3 construct: Whole brains with cerebellum removed were homogenized in 100 volumes of Tris-HCl buffer; from tissue; host or cells: rat whole brain (cerebellum removed) membrane homogenate
T3 sequence (P33533 whole entry): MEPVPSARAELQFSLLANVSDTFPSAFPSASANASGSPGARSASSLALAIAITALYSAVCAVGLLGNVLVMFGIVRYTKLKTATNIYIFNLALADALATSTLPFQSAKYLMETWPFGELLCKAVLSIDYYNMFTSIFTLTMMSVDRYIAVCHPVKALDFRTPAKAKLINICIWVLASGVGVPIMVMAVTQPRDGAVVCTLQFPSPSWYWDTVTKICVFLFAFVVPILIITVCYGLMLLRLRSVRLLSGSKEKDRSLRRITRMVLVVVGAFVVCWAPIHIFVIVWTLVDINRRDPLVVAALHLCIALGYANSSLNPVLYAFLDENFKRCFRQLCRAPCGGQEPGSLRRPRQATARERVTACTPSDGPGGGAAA

T1 sequence (P33535 whole entry): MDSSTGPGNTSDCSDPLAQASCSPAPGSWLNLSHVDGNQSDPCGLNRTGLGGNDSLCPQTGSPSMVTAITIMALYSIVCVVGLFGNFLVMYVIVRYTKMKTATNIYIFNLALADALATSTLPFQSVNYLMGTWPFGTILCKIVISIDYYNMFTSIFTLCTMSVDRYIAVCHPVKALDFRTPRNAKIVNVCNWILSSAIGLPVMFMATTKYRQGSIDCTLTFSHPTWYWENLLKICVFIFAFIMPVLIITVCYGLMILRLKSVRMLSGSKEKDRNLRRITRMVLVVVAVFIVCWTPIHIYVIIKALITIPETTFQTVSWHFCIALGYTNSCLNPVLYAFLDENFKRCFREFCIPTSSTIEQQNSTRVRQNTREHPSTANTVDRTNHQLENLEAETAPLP
T2 sequence (P32300 whole entry): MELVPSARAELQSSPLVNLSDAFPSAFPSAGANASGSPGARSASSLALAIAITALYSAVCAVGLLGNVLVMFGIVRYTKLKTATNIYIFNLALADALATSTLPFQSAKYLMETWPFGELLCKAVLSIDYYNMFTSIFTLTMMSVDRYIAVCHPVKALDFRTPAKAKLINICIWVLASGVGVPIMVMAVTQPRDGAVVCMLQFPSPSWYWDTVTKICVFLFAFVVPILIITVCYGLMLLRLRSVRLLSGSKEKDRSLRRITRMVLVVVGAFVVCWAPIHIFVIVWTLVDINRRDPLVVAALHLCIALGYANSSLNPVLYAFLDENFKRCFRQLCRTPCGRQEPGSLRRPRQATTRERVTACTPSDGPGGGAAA

SMILES | IC50 [1] [nM] | IC50 [2] [nM] | IC50 (GPI)/IC50 (MVD) [2] | IC50 [3] [nM] | IC50 (NAL)/IC50 (DADLE) ([3]; delta receptor selectivity in rat brain binding) | IC50 ([2]; electrically stimulated contractions, mouse vas deferens, read-out: IC50 (nM) MVD) [nM]
C[C@@H](O)[C@H](NC(=O)[C@@H]1CSSC(C)(C)[C@@H](NC(=O)[C@@H](N)Cc2ccc(O)cc2)C(=O)NCC(=O)N[C@@H](Cc2ccccc2)C(=O)N1)C(=O)O (H-Y[dPen]GFCT-OH; disulfide 2-5) | 146 | 0.6 | 380 | 5.2 | 28.2 | 
Oc1ccc2c3c1O[C@H]1[C@@H](O)C=C[C@H]4[C@@H](C2)NCC[C@@]341 [Normorphine] |  |  | 0.17 |  |  | 540
CSCC[C@H](NC(=O)[C@H](Cc1ccccc1)NC(=O)CNC(=O)[C@@H](C)NC(=O)[C@@H](N)Cc1ccc(O)cc1)C(N)=O [[D-Ala^2, Met^5]Enkephalinamide, [D-Ala^2, Met^5]Enkephalinamide] |  | 3.75 |  |  |  | 
CC(C)C[C@H](NC(=O)[C@H](Cc1ccccc1)NC(=O)CNC(=O)[C@@H](CO)NC(=O)[C@@H](N)Cc1ccc(O)cc1)C(=O)N[C@H](C(=O)O)[C@@H](C)O [[D-Ser^2, Leu^5, Thr^6]Enkephalin, [D-Ser^2, Leu^5, Thr^6]enkephalin] | 88 ± 6 |  |  | 5.73 |  | 
CC(C)C[C@H](NC(=O)[C@H](Cc1ccccc1)NC(=O)CNC(=O)[C@H](NC(=O)[C@@H](N)Cc1ccc(O)cc1)[C@H](C)O)C(=O)N[C@H](C(=O)O)[C@@H](C)O [[D-Thr^2, Leu^5, Thr^6]Enkephalin, [D-Thr^2, Leu^5, Thr^6]enkephalin] | 36.3 |  |  | 6.4 |  | 

— patent US4518711A, “Conformationally constrained cyclic enkephalin analogs with delta receptor specificity” (Gibson-Stephens Institute, priority 1983, dated 1985)
